Measured values published in patent publication US20230355566A1, “POTENTIATION OF HELMINTH TREATMENT” (Elanco Tiergesundheit AG, priority 2019, published 2023).

Key:
[1] = system: Fasciola hepatica (Sunny Corner isolate, Fashep-66), immature stage; test: Efficacy and synergy against immature stage of Fasciola hepatica in experimentally infected sheep (Example 3); type: in vivo; conditions: closantel 3.75 mg/kg, combination 40 and 3.75 mg/kg; for % Efficacy using arithmetic mean / % Efficacy using geometric mean: single oral treatment day 42, diamphenethide 40 mg/kg, vs untreated control; for Fluke Count, arithmetic mean / Fluke Count, geometric mean: single oral treatment day 42 after infection, diamphenethide 40 mg/kg, live fluke in liver day 91
Protocol: In the following examples, all animals were confirmed free of infection with F. hepatica and found clinically healthy by a veterinarian prior to enrollment in the study. Doses were administered orally from suitably sized disposable syringes. The fluke counts and body weights were log-transformed (after adding a constant of 1 to the fluke counts only) and the distribution of the transformed data checked to see if they satisfied the assumption of normal distribution. Differences between treatment groups were analyzed by analysis of variance methods (ANOVA), as the assumptions of normal distribution were satisfied for log-transformed fluke count and log-transformed bodyweight, as well as for (untransformed) fluke measurements. Arithmetic […]), geometric […]), median and ranges were summarized for fluke counts, fluke measurements and bodyweight. A constant of one was applied for calculation of geometric means of fluke counts. The percentage efficacy for each treated group was calculated as follows: […] where FCC is the arithmetic mean fluke count of the control group and FCT is the arithmetic mean fluke count of the treated group. […] Note that expected synergy is defined as: […] Administered Concurrently with Closantel Against the Immature Stage of Fasciola hepatica Infections in Sheep This study was to assess the efficacy of […] (40 mg/kg) given concurrently with closantel (3.75 mg/kg), […] alone (40 mg/kg), and closantel alone (3.75 mg/kg) against F. hepatica in sheep (3-4 month Merino lambs) with treatment on day 42. This was a controlled, blinded, randomized study. On day 0, the sheep were experimentally infected with a single isolate of approximately 200 Sunny Corner ([…]-66) isolate F. hepatica metacercariae. The required number of […] up in carboxymethyl cellulose. Syringes were checked post-infection for retained […]. The infection was administered orally and each infective dose was followed by water administered orally. The sheep were randomized into treatment groups on the basis of day 41 body weight and allocated to groups as denoted in Table 3.1. Body weight was determined one day prior to treatment. All treatments were measured by volume and rounded to the nearest 0.1 mL. On day 42, and before feeding, the individual animals were treated once only with the treatment in Table 3.1. Once the animals had been treated they were returned to their pens and fed within one hour. Untreated control animals were also fed at this time. The liver with gall bladder and bile ducts intact were recovered from each animal on day 91 and processed for F. hepatica counts. The assessment of efficacy was based on the number of live fluke removed from the liver.

[2] = deacylation to DAMD; cited from earlier work
liver flukes = conditions: cited from earlier work
[3] = system: Fasciola hepatica (Oberon isolate, Fashep-65), early immature stage; test: Efficacy against early immature stage of Fasciola hepatica in experimentally infected sheep (Example 2); type: in vivo; conditions: closantel 10 mg/kg, combination 60 and 10 mg/kg
Protocol: In the following examples, all animals were confirmed free of infection with F. hepatica and found clinically healthy by a veterinarian prior to enrollment in the study. Doses were administered orally from suitably sized disposable syringes.
The fluke counts and body weights were log-transformed (after adding a constant of 1 to the fluke counts only) and the distribution of the transformed data checked to see if they satisfied the assumption of normal distribution. Differences between treatment groups were analyzed by analysis of variance methods (ANOVA), as the assumptions of normal distribution were satisfied for log-transformed fluke count and log-transformed bodyweight, as well as for (untransformed) fluke measurements.
Arithmetic means (Amean), geometric means (Gmean), median and ranges were summarized for fluke counts, fluke measurements and bodyweight. A constant of one was applied for calculation of geometric means of fluke counts.
The percentage efficacy for each treated group was calculated as follows:
% Efficacy=100×(FCC−FCT)/FCC
where FCC is the arithmetic mean fluke count of the control group and FCT is the arithmetic mean fluke count of the treated group. The formula was also applied using mean geometric fluke counts; these were calculated using log transformed data with 1 added as a constant to each fluke count and then subtracted following transformation.
Efficacy of Diamphenethide in Combination with Closantel in Oral Formulations Against the Early Immature Stage of Fasciola hepatica in Sheep
This study was to assess the efficacy of diamphenethide (60 mg/kg) given concurrently with closantel (10 mg/kg), diamphenethide alone (60 mg/kg), and closantel alone (10 mg/kg) against F. hepatica in sheep with treatment on day 14. This was a controlled, blinded, randomized study using […] Merino lambs.
On day 0, the sheep were experimentally infected with a target of 87 Oberon isolate (Fashep-65) F. hepatica metacercariae. The required number of metacercariae were prepared for infection in a water and 4% carboxymethylcellulose solution. Each infective dose was followed by water administered orally.
The sheep were randomized into treatment groups on the basis of day 11 body weight and allocated to groups as denoted in Table 2.1.
Body weight was determined on day 11 and doses were measured by volume and rounded to the nearest 0.1 mL. On day 14, and before feeding, the individual animals were treated once only with the Treatment in Table 2.1. Once the animals had been treated they were returned to their pens and fed within one hour. Untreated control animals were also fed at this time.
The liver with gall bladder and common bile duct intact were recovered on day 91 or 92 from each animal and processed for F. hepatica counts. […]

[4] = single oral treatment day 14, diamphenethide 60 mg/kg, vs untreated control
[5] = single oral treatment day 14 after infection, diamphenethide 60 mg/kg, live fluke in liver day 91 or 92

SMILES | % Efficacy using arithmetic mean [1] [%] | % Efficacy using geometric mean [1] [%] | Fluke Count, arithmetic mean [1] | Fluke Count, geometric mean [1] | Metabolism [2] | Activity against early immature flukes (liver flukes; flukes up to 6 weeks of age) | Activity against flukes as they develop to maturity (liver flukes; maturing flukes) | % Efficacy using arithmetic mean [3, 4] [%] | % Efficacy using geometric mean [3, 4] [%] | Fluke Count, arithmetic mean [3, 5] | Fluke Count, geometric mean [3, 5]
Cc1cc(C(C#N)c2ccc(Cl)cc2)c(Cl)cc1NC(=O)c1cc(I)cc(I)c1O (stereo not drawn) [Closantel, N-[5-chloro-4-[(4-chlorophenyl)cyanomethyl]-2-methylphenyl]-2-hydroxy-3,5-diiodobenzamide] | 40.1 | 40.7 | 54.0 | 51.6 | – | – | – | – | – | – | –
CC(=O)Nc1ccc(OCCOCCOc2ccc(NC(C)=O)cc2)cc1 [Diamphenethide, N-[4-[2-[2-(4-acetamidophenoxy)ethoxy]ethoxy]phenyl]acetamide] | 36.1 | 41.5 | 57.6 | 50.9 | rapidly metabolized by deacylation | highly effective | progressively lower activity | 98.3 | 98.4 | 0.3 | 0.3
